The text below walks through data of publication PMC13334477 (RSC Medicinal Chemistry, 2026).

The structures appear in SMILES notation. Values joined by “and” are separate entries in the source; they are usually repeats but may differ in a detail not shown here. Equal entries are not always repeated. Where two headings read alike, the source gives them in different places.

Assay [1] deals with DK100 (DNA, duplex) CGCGGGCCCGCG
Put plainly: native ESI-MS. To be noted: 100 mM ammonium acetate (NH4+), no K+, apparent, 10 μM DNA, 20 μM ligand, 4 °C incubation.

The subject of assay [2] is Htel-FT (human telomeric DNA G4). Description: FRET melting assay, Htel-FT. The assay is classed as binding. To be noted: ligand 1 μM, DNA 0.2 μM. As for the experimental part: (§1) Doubly labelled oligonucleotides with fluorescein and TAMRA were purchased lyophilized and RP-cartridge purified from Eurogentec (Kanaka Eurogentec, Seraing, Belgium). FRET melting experiments were run on Stratagene Mx3005P real-time PCR equipment in 96-well plates on the DNA sequences listed Table 1. Experiments were performed in 10 mM lithium cacodylate buffer (pH 7.2) and 10 mM KCl and 90 mM LiCl as previously described.[45,46] The DNA concentration was 0.2 μM. The stabilization (ΔT1/2) induced by compounds was calculated as the difference between the Tm of the nucleic acid alone and that measured with a ligand concentration of 1 μM. Data are presented as averages of three independent measurements, each conducted in duplicate (λexc = 492 nm, λem = 516 nm, T interval = 25–95 °C, ramp: 25 °C for 5 min, then 1 °C min^−1, measurements every 1 °C, 8× magnification of the fluorescence signal). The G4 selectivity of the ligands with respect to the duplex was evaluated by determining the Tm values in the presence of 0, 3 or 10 μM of the duplex competitor ds26.
(§2) In this assay, we performed thermal denaturation experiments by heating and recording the fluorescence of DNA oligonucleotides doubly labelled with fluorescein and TAMRA fluorophores (Fig. 3 and S7). Ligand binding to the G4 stabilises the structure, resulting in an increase in the half-dissociation temperature of the structure (ΔT1/2). As a first approximation, the higher the ΔT1/2 (ΔT1/2 higher), the higher the affinity of the ligand for the target.[45]
(§3) The fluorescently labeled oligonucleotides were dissolved at a concentration of 0.2 μM in 10 mM lithium cacodylate buffer (pH 7.2) with 10 mM KCl and 90 mM LiCl. […] E) Radar plot representation that summarizes the FRET-melting results (ΔT1/2 (°C)) for each ligand in the presence of HIVpro1-FT (green), HIVpro2-FT (grey), LTR4-FT (bleu), and Htel-FT (red). Data are the results of at least three independent experiments in which each data point was performed in duplicate.

The test system of assay [3] is DK66 (DNA, duplex) CGCGAATTCGCG
Description: native ESI-MS. The conditions noted are these: 100 mM ammonium acetate (NH4+), no K+, apparent, 10 μM DNA, 20 μM ligand, 4 °C incubation.

The subject of assay [4] is HIVpro2-FT (hybrid DNA G4). Put plainly: FRET melting assay, HIVpro2-FT. The format is binding, HIV-1. The conditions noted are these: ligand 1 μM, DNA 0.2 μM. As for the experimental part:
as §1, §2, §3

Another assay deals with HIV-1. Description: microbe, parasite or virus in culture. The conditions noted are these: Human immunodeficiency virus 1, HeLaP4, read-out: IC50 (infectivity inhibition), native HIV-1, MOI 1, compound added 30 min before infection, 24 h, β-gal reporter.
For a further assay, the target named is TG4T DNA G4 (parallel). Put plainly: Native ESI-MS, TG4T. The assay is classed as binding. To be noted: 10 μM DNA, 20 μM ligand, 100 mM ammonium acetate. As for the experimental part:
Oligonucleotides were purchased lyophilized and RP-cartridge purified from Eurogentec (Kanaka Eurogentec, Seraing, Belgium), then buffer exchanged with ammonium acetate (5 M; Sigma-Aldrich, Saint-Quentin-Fallavier, France) using Amicon Ultra (3 K cut-off; Merck Millipore, Cork, Ireland). The concentrations of the initial stock solutions of DNA/RNA (∼1 mM) were measured by UV absorbance at 260 nm. Sample solutions were prepared by diluting the appropriate volume of oligonucleotide stock solutions to reach 10 μM of DNA/RNA and 20 μM of ligand, in 100 mM ammonium acetate. The solutions were incubated for 16 h at 4 °C before analysis by mass spectrometry. […] These parameters ensured a good signal intensity without disrupting noncovalent complexes, which was verified using d[G4T4G4]2 as a control. The presented spectra of all DNA/RNA used in this work (Fig. 5, S9 and S10) result from 8 min accumulations. The abundance of each species, M, M + 1L, M + 2L and M + 3L complexes, where M is a monomer oligonucleotide and L is a ligand, was determined from their peak area signals (A), from the sum of the −4, −5 and −6 charge states for DNA and from the sum of the −5, −6 and −7 charge states for RNA, assuming that their response factors are equal. The molar concentrations were then calculated knowing the total amount of oligonucleotide [M]tot: [drawing 1] [drawing 2] [drawing 3] [drawing 4] The concentration of the free ligand, [L]free, was determined from its total concentration [L]tot:[L]free = [L]tot − [M + 1L] − 2[M + 2L] − 3[M + 3L]Apparent consecutive dissociation constants (Kd1, Kd2 and Kd3) were calculated by using the following equations: [drawing 5] [drawing 6] [drawing 7]
We further analysed the formation of the DBA/G4 complexes by native electrospray ionization mass spectrometry (ESI-MS). We initially attempted to analyze DBA binding to the primary G4 targets from HIV-1 (HIVpro1, HIVpro2, LTR4 and rLTR4 RNA). […] These sequences span the major G4 topological classes and provide a representative assessment of DBA binding across diverse G4 architectures. We also included two DNA duplex controls (DK100 and DK66) to evaluate binding selectivity. This ESI-MS approach enables direct determination of binding stoichiometry, quantification of each species in solution, and calculation of dissociation constants (Kd) from the relative abundances of free and bound forms.[88,97]
In the ESI-MS conditions, the rLTR4 G4 (10 μM) forms a dimeric structure. […] Among the six DNA and RNA tested here (Fig. 5B, S9 and S10) only rLTR4 presented 1 : 3 G4/DBA complexes. In all cases but one, the 1 : 1 stoichiometry represents the major species in solution while for rLTR4 it is the 1 : 2 (green). […] For TG4T tetramolecular G4 or G4T4G4 bimolecular G4 only 1 : 1 and 1 : 2 complexes were detected (Fig. S9A and S10A). […] The weakest binding was obtained for the G4T4G4 antiparallel G4 and Htel sequence with Kd1s ranging from 11 μM for to 500 μM (Table 2).

Broadly, the IC50 is the concentration at which inhibition is half-maximal. As to `COc1ccc2c(ccc3c2cc2c4ccc(OC)cc4ccc2[n+]3-c2ccc([N+](=O)[O-])cc2)c1` [DBA4], the results for the Kd1 in assay [1] (site 1 of 2) and in assay [3] (site 1 of 2) were 38.42 µM and 165.13 µM, respectively. The “ΔT1/2 Htel” value in assay [2] (+10µM ds26) is 14±0.3 °C. The “ΔT1/2 HIVpro2” value in assay [4] (+10µM ds26) is 3.0±0.8 °C; in assay [4] (No ds26), 3.8±0.3 °C and 3.8 °C. In addition, the half-maximal inhibitory concentration (IC50) in the assay on HIV-1 came out at 1 µM. Further, the Kd at TG4T DNA G4 (parallel) (read-out: Kd1 TG4T) came to 5.42 µM; at TG4T DNA G4 (parallel) (read-out: Kd2 TG4T) it was 22.7 µM.

Consider `COC(=O)c1ccc(-[n+]2c3ccc4cc(OC)ccc4c3cc3c4ccc(OC)cc4ccc32)cc1` [DBA2], for which the Kd1 in assay [1] (almost no complex detected) stood at 833.14 µM; in assay [3] (almost no complex detected), 711.55 µM. The “ΔT1/2 Htel” value in assay [2] (+10µM ds26) is 12±0.6 °C. The “ΔT1/2 HIVpro2” value in assay [4] (+10µM ds26) is 2.0±0.4 °C; in assay [4] (No ds26) it was 2.1±0.2 °C and 2.1 °C. For the same molecule, the IC50 in the assay with HIV-1 is 3.1 µM. Also, the Kd at TG4T DNA G4 (parallel) (read-out: Kd1 TG4T) was 6.09 µM; at TG4T DNA G4 (parallel) (read-out: Kd2 TG4T), 25.9 µM.

Consider `COc1ccc(-[n+]2c3ccc4cc(OC)ccc4c3cc3c4ccc(OC)cc4ccc32)cc1` [DBA3], for which the Kd1 in assay [1] (site 1 of 2, almost no complex) turned out to be 155.63 µM; in assay [3] (almost no complex detected), 1071.92 µM. For the same molecule, the “ΔT1/2 Htel” value in assay [2] (+10µM ds26) was 14±0.1 °C. Moreover, the “ΔT1/2 HIVpro2” value in assay [4] (+10µM ds26) is 3.8±0.6 °C; in assay [4] (No ds26), 3.5±0.2 °C and 3.5 °C. In addition, the concentration for half-maximal inhibition (IC50) in the assay with HIV-1 came out at 4.3 µM. Further, the Kd on TG4T DNA G4 (parallel) (read-out: Kd1 TG4T) came out at 13.6 µM; at TG4T DNA G4 (parallel) (read-out: Kd2 TG4T), 52.2 µM.

With `c1ccc(-[n+]2c3ccc4ccccc4c3cc3c4ccccc4ccc32)cc1` [DBA5], the Kd1 in assay [1] (site 1 of 2) is 40.04 µM; in assay [3] (site 1 of 2), 75.39 µM. Also, the figures for the “ΔT1/2 Htel” value in assay [2] (+10µM ds26) and in assay [2] (No ds26) were 9.0±0.1 °C and 12.2±0.1 °C, respectively. Moreover, the “ΔT1/2 HIVpro2” value in assay [4] (+10µM ds26) was determined as 1.7±0.9 °C; in assay [4] (No ds26), 1.9±0.1 °C. The results for the Kd at TG4T DNA G4 (parallel) (read-out: Kd1 TG4T) and on TG4T DNA G4 (parallel) (read-out: Kd2 TG4T) were 21.6 µM and 89.4 µM, respectively.

For `COc1ccc2c(ccc3c2cc2c4ccc(OC)cc4ccc2[n+]3-c2ccccc2)c1` [DBA1], the results for the Kd1 in assay [1] (almost no complex detected) and in assay [3] (almost no complex detected) were 1027.52 µM and 4833.59 µM, respectively. In addition, the “ΔT1/2 Htel” value in assay [2] (+10µM ds26) was found to be 13±0.5 °C; in assay [2] (No ds26) it was 17±0.2 °C. Further, the “ΔT1/2 HIVpro2” value is 3.3±0.4 °C in assay [4] (+10µM ds26) and 4.2±1.4 °C in assay [4] (No ds26). The 50% inhibitory concentration (IC50) in the assay with HIV-1 was determined as 0.9 µM. The values for the Kd on TG4T DNA G4 (parallel) (read-out: Kd1 TG4T) and at TG4T DNA G4 (parallel) (read-out: Kd2 TG4T) were 14.7 µM and 46 µM, respectively.
